Experimental findings from patent publication US8901090B2, “Method of treating otitis externa using macrocyclic lactone compound” (Galderma S.A., priority 2010, dated 2014) are described below.

The experiment in a line: Topical treatment of patients with acute otitis externa with ivermectin lotion (informal trials, Examples 3-6). The format is in vivo, human. From the text:
The otic composition of the present invention described above is applied into the external auditory canal and on the auricle of the affected ear. The lotion, gel, or ointment can be applied with an applicator into the external auditory canal by the patient or others. Preferably, the applicator has a smooth surface, for example, a glass rod, coated with the lotion, gel, or ointment. Although cotton swab can be used, precaution should be exercised, because cotton swab is rough and it can cause irritation to the epidermis of the external auditory canal, and cotton residue left in the ear canal can cause further complication of the condition. The composition in the form of liquid suspension can be dropped or sprayed into the external auditory canal. The otic composition can be packaged for proper dosing by the patients. Moreover, the otic composition can also be integrated into or applied on an absorbent material, such as a strip of cotton fabric or medical dressing, and then the absorbent material is inserted into the external auditory canal by a physician as needed.
Operating with informed consent of individuals, individuals were treated with the otic composition and the method of the present invention for treating otitis externa, as described in Examples 3 to 7.
A person presented with acute otitis externa, symptoms including pain, tenderness, and swelling of the right ear canal. […]

As to ivermectin, for the setting “otic composition containing ivermectin at a concentration as low as 0.075%”, the “effectiveness in treating otitis externa” value is listed as “effective”. In addition, the “time until dramatic resolution of the symptoms” value (summary of Examples 3 through 6, otic composition containing 0.075% of ivermectin) is not above 24 h.
